# In patent US8034924B2, “Process for production of crystal of purine nucleoside compound” (Ajinomoto Co., Inc., priority 2007, dated 2011):
# Test: Storage stability of crystals of 2′,3′-dideoxyinosine (increase of hypoxanthine after storage, HPLC)
# Format: physicochemical
# Conditions: crystals stored at 60° C., at RH75% for 7 days
# Protocol: In order to examine the storage stability, the obtained crystals were stored at 60° C., at RH75% for 7 days.
# The concentration of the phosphate on the surface of the crystals and the amount of hypoxanthine were analyzed in the conditions shown in the following Table 2.
# [1] = Table 4, degree of washing changed per sample
# [2] = Table 3, phosphate removed by suspending in water vs Example 3
SMILES,Increase of hypoxanthine after storage (%/DDI) (Table 1),Increase of hypoxanthine after storage (%/DDI) [1] [%/DDI],further results
"OC[C@@H]1CC[C@H](n2cnc3c(O)ncnc32)O1 [Ex. 4, 2′,3′-dideoxyinosine]",0.54,,
"OC[C@@H]1CC[C@H](n2cnc3c(O)ncnc32)O1 [Ex. 8, 2′,3′-dideoxyinosine]",,0.90,
"OC[C@@H]1CC[C@H](n2cnc3c(O)ncnc32)O1 [Comp. Ex. 7, 2′,3′-dideoxyinosine, reference compound]",,2.24,
"OC[C@@H]1CC[C@H](n2cnc3c(O)ncnc32)O1 [Comp. Ex. 8, 2′,3′-dideoxyinosine, reference compound]",,2.20,
"OC[C@@H]1CC[C@H](n2cnc3c(O)ncnc32)O1 [Comp. Ex. 10, 2′,3′-dideoxyinosine, reference compound]",,1.91,
"OC[C@@H]1CC[C@H](n2cnc3c(O)ncnc32)O1 [Comp. Ex. 1, 2′,3′-dideoxyinosine, reference compound]",2.24,,
"OC[C@@H]1CC[C@H](n2cnc3c(O)ncnc32)O1 [Ex. 3, 2′,3′-dideoxyinosine]",0.20,,Increase of hypoxanthine after storage (%/DDI) [2]: 0.20 %/DDI
"OC[C@@H]1CC[C@H](n2cnc3c(O)ncnc32)O1 [Ex. 13, 2′,3′-dideoxyinosine]",,1.04,
"OC[C@@H]1CC[C@H](n2cnc3c(O)ncnc32)O1 [Comp. Ex. 4, 2′,3′-dideoxyinosine, reference compound]",2.20,,
"OC[C@@H]1CC[C@H](n2cnc3c(O)ncnc32)O1 [Ex. 12, 2′,3′-dideoxyinosine]",,1.26,
"OC[C@@H]1CC[C@H](n2cnc3c(O)ncnc32)O1 [Ex. 5, 2′,3′-dideoxyinosine]",,1.38,
"OC[C@@H]1CC[C@H](n2cnc3c(O)ncnc32)O1 [Ex. 11, 2′,3′-dideoxyinosine]",,0.90,
"OC[C@@H]1CC[C@H](n2cnc3c(O)ncnc32)O1 [Ex. 10, 2′,3′-dideoxyinosine]",,0.97,
"OC[C@@H]1CC[C@H](n2cnc3c(O)ncnc32)O1 [Comp. Ex. 5, 2′,3′-dideoxyinosine, reference compound]",,,Increase of hypoxanthine after storage (%/DDI) [2]: 4.32 %/DDI
"OC[C@@H]1CC[C@H](n2cnc3c(O)ncnc32)O1 [Comp. Ex. 6, 2′,3′-dideoxyinosine, reference compound]",,2.47,
"OC[C@@H]1CC[C@H](n2cnc3c(O)ncnc32)O1 [Ex. 6, 2′,3′-dideoxyinosine]",,1.03,
"OC[C@@H]1CC[C@H](n2cnc3c(O)ncnc32)O1 [Ex. 1, 2′,3′-dideoxyinosine]",0.45,,
"OC[C@@H]1CC[C@H](n2cnc3c(O)ncnc32)O1 [Ex. 9, 2′,3′-dideoxyinosine]",,0.70,
"OC[C@@H]1CC[C@H](n2cnc3c(O)ncnc32)O1 [Comp. Ex. 2, 2′,3′-dideoxyinosine, reference compound]",1.91,,
"OC[C@@H]1CC[C@H](n2cnc3c(O)ncnc32)O1 [Comp. Ex. 9, 2′,3′-dideoxyinosine, reference compound]",,2.21,
"OC[C@@H]1CC[C@H](n2cnc3c(O)ncnc32)O1 [Comp. Ex. 3, 2′,3′-dideoxyinosine, reference compound]",2.21,,
"OC[C@@H]1CC[C@H](n2cnc3c(O)ncnc32)O1 [Ex. 7, 2′,3′-dideoxyinosine]",,1.19,
"OC[C@@H]1CC[C@H](n2cnc3c(O)ncnc32)O1 [Ex. 2, 2′,3′-dideoxyinosine]",0.48,,
